What was measured:
His-hSHIP1 enzyme [1] = target: T1, His-hSHIP1 enzyme (Homo sapiens, UniProt Q92835); assay: His-hSHIP1 activity, approach 2 (ratio of initial velocities IP4 25/IP4 250); type: biochemical; parameters: key: +++: higher than reference or reference - 15%; ++: reference - 16% to reference - 30%; +: reference - 31% or lower; details: ratio of initial velocities IP4 25/IP4 250 versus reference SHIP1 activator; asterisk in Table 2
T1 construct: His
T1 sequence (Q92835 1-1189): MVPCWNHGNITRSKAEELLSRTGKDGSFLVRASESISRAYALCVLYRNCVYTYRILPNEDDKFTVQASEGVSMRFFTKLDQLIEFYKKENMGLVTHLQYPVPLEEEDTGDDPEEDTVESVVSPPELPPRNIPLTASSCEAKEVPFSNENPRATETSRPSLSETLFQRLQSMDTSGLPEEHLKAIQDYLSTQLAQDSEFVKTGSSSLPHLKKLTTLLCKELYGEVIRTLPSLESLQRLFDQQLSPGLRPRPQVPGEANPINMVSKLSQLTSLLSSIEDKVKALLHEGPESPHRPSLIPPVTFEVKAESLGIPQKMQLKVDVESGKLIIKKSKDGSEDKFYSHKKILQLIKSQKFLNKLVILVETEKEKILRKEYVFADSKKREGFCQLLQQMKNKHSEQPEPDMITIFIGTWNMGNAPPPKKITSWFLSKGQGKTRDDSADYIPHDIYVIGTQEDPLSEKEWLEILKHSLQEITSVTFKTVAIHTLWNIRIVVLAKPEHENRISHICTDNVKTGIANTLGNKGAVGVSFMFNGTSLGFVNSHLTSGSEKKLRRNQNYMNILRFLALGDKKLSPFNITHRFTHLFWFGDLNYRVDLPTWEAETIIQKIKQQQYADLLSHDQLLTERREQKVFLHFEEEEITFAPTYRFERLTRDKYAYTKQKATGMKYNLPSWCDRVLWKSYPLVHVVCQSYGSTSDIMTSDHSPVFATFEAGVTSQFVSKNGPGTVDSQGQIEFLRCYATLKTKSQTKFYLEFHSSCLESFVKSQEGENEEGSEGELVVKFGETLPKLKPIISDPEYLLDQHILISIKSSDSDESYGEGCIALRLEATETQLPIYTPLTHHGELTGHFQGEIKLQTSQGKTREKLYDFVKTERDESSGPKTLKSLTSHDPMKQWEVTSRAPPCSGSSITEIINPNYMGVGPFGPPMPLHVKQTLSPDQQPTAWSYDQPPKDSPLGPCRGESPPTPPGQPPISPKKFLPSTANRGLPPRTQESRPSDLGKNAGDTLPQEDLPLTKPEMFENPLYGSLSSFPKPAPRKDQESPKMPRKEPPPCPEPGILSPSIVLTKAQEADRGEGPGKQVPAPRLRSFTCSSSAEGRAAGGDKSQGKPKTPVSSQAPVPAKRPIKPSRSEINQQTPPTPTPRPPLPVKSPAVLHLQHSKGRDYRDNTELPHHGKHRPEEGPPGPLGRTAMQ
Protocol: (§1) Test compounds are dissolved in 95% ethanol to form stock solutions. Before screening, the stock solutions are diluted with Phosphatase Assay Buffer (20 mM Tris-HCL, 10 mM MgCl2 pH 7.5, 0.02% Tween 20) to form working assay solutions that contain 10% ethanol. The assay is carried out on 96-well microtiter plates using a modified procedure of that reported by Ong et al., Blood 110, 1942-1949, 2007 and Yang et al., Org Lett 7, 1073-1076, 2005, both of which references are incorporated herein by reference in their entirety.
In the second approach, a master mix is prepared that contains […] (0.4-1.6 ng/μL final), 25 μL of the substrate, IP4 (25 or 250 μM final), and 50 μL of test compound in 3.3% ethanol ([…]). Control blanks are also prepared by replacing His-hSHIP1 enzyme, IP4, or test compounds with Phosphate Assay Buffer. […] Each reaction component is preincubated at 37° C. for 30 min before adding to a 96-well microtiter plate. The master mix is then incubated at 37° C. At time 0, 20, 25 and 30 min, 25 μL of the master mix is removed and transferred to a new 96-well microtiter plate, to which 100 μL of Biomol Green Reagent is added to stop the reaction. After incubating the mixture for 20 min at room temperature for color development, the absorbance is read with SpectraMax Plus 96-well plate reader at a wavelength of 650 nm. Phosphate released is plotted against time to calculate the initial velocities (i.e., slope of the graph) at each IP4 concentration. The initial velocities are baseline corrected and the ratio of initial velocities (IP425/IP4250) is calculated and used to rate the test compounds.

[2] = tested on: Akt phosphorylation in Molt-4 (SHIP1+) lymphocytes; assay: Akt phosphorylation in lymphocytes, Molt-4 (Western blot); type: cell-based; parameters: key: +: inhibits Akt phosphorylation at 10 μM; −: no effect on Akt phosphorylation at 10 μM; details: 10 μM; IGF-1 stimulated Molt-4 (PTEN−/SHIP1+) cells
Protocol: (§2) Jurkat (PTEN−/SHIP1−) or Molt-4 (PTEN−/SHIP1+) cells are starved in serum free RPMI for overnight. In a 15 mL conical tube, 2-3 million serum starved cells (1 million cells per mL) are treated with various concentrations of test compound (0.1, 1, or 10 μM final in 0.1% DMSO) for 30 min at 37° C. followed by stimulation with 100 ng/mL of IGF-1 for 1 hour at 37° C. After stimulation, cells are washed once with ice-cold DPBS and lysed with Lysis Buffer (20 mM Tris-HCl, pH 7.5, 140 mM NaCl, 1% NP-40, Complete Mini Protease Inhibitor Cocktail, 10 mM NaF, 1 mM Na3VO4, 1 mM β-glycerolphosphate) on ice for 30 min with vortexing every 10 min. Samples are then centrifuged at 13,000 rpm for 20 min, and supernatants are collected as total cell lysate samples. Protein concentration is determined using bicinchonic acid assay, and about 15 μg of total protein from each sample is loaded and separated on a 4-12% Tris-Glycine gel. After SDS-PAGE, proteins are transferred from the gel to a nitrocellulose membrane. The membrane is blocked in 5% BSA in PBS containing 0.1% Tween-20 (PBS-T) for 1 hour at room temperature before probing with primary antibodies for overnight at 4° C. The following antibodies are used: mouse anti-SHIP1 (1:500 dilution; Santa Cruz, Calif., USA), rabbit anti-phospho-Akt(Ser473) (1:1000 dilution; Cell Signaling Technologies, MA, USA), rabbit anti-Akt (1:1000; Cell Signaling Technologies, MA, USA), and rabbit anti-actin (1:2000; Cell Signaling Technologies, MA, USA). The membrane is then incubated with goat anti-rabbit or anti-mouse secondary antibodies (1:3000) for 1 hour at room temperature. Target proteins on the membrane are detected with ECL solution and exposed on a film.

[3] = tested on: Akt phosphorylation in Jurkat (SHIP1−) lymphocytes; assay: Akt phosphorylation in lymphocytes, Jurkat (Western blot); type: cell-based; parameters: key: +: inhibits Akt phosphorylation at 10 μM; −: no effect on Akt phosphorylation at 10 μM; details: 10 μM; IGF-1 stimulated Jurkat (PTEN−/SHIP1−) cells
Protocol: as §2

His-hSHIP1 enzyme [4] = target: T1, His-hSHIP1 enzyme; assay: His-hSHIP1 activity, approach 1 (phosphate release from IP4, Biomol Green); type: biochemical; details: activation of His-hSHIP1; IP4 50 μM; test compound 0-300 μM; no asterisk in Table 2
Protocol: as §1
Data were generated by one of two variant methods. Test compounds are screened by one of two approaches described as follows. In the first approach, each reaction contains 5 μL of His-hSHIP1 enzyme (5-20 ng), 10 μL of the substrate, 1,3,4,5-inositol tetrakisphosphate (IP4; 50 μM final), 5 μL of Phosphatase Assay Buffer, and 5 µL of test compound at various concentrations in 10% ethanol (0-300 μM final). Control blanks are also prepared by replacing His-hSHIP1 enzyme, IP4, or test compounds with Phosphatase Assay Buffer. After adding the reaction components in a 96-well microtiter plate on ice, the reaction is mixed by briefly shaking the plate vigorously. The reaction is then incubated at 37° C. for 15 min with gentle shaking followed by addition of 100 μL of Biomol Green Reagent (BIOMOL, Pa., USA) to terminate the reaction. The free phosphate released from IP4 by His-hSHIP1 binds to the Biomol Green Reagent, which turns the dye to green color. After incubating the mixture for 20 min at room temperature for color development, the absorbance is read with SpectraMax Plus 96-well plate reader (Molecular Devices, Sunnyvale, Calif., USA) at a wavelength of 650 nm.

[5] = tested on: passive cutaneous anaphylaxis in mice; assay: Passive cutaneous anaphylaxis in mice; type: in vivo; details: oral gavage, doses less than 20 mg/kg
Protocol: The activity of representative compounds on passive cutaneous anaphylaxis in mice was evaluated according to the procedures disclosed by Ovary, J Immunol 81, 355-357, 1958 and Halpern et al., Br J Pharmacol Chemother 20, 389-398, 1963, both of which are incorporated herein by reference in their entirety.
To induce a passive cutaneous anaphylaxis, mice undergo intradermal ear inoculation on their right ear with 25 ng in 20 μL of anti-DNP-IgE. The left ears are untreated and serve as negative controls. Twenty-four hours after inoculation, all mice are administered test compound by oral gavage (PO). Sixty minutes after oral administration, mice are given a tail vein injection of 2% Evan's Blue (0.2 μm filtered, in 200 μL saline) followed by a second tail IV injection of 100 μg DNP-HSA (in 200 μL). Sixty minutes following the DNP-HAS injection, mice are euthanized using CO2 inhalation. Subsequently, ear biopsies are performed by taking four millimetre punches from both ears, which then undergo Evan's Blue extraction using formamide incubation in 96 well plates. Eighty μL of eluents are transferred to flat-bottom 96-well plates and absorbance read using SpectraMax M5 spectrophotometer (Molecular Devices, Sunnyvale, Calif., USA) at 620 nm. Background readings from all samples are taken at 740 nm and subtracted from the 620 nm readings. Data are reported as OD.

| Compound | Scoring, Approach 2 (Initial velocity Ratio) (His-hSHIP1 enzyme [1]) | Molt-4 (SHIP +), Akt phosphorylation [2] | Jurkat (SHIP1 −), Akt phosphorylation [3] | Scoring, Approach 1 (% increase relative to background) (His-hSHIP1 enzyme [4]) | % Inhibition of allergen-induced passive cutaneous anaphylaxis [5] |
| --- | --- | --- | --- | --- | --- |
| Cc1cc(O)cc(C[C@H]2[C@@H](C(=O)O)CC[C@H]3C(C)(C)CCC[C@]23C)c1 [Compound No. 20, (1S,2S,4aS,8aR)-1-[(3-hydroxy-5-methylphenyl)methyl]-5,5,8a-trimethyl-decahydronaphthalene-2-carboxylic acid] | +++ | − | − |  |  |
| CC1(C)CCC[C@]2(C)[C@@H](COc3cc(O)cc(O)c3)[C@](C)(O)CC[C@@H]12 [Compound No. 38, 5-{[(1S,2R,4aS,8aS)-2-hydroxy-2,5,5,8a-tetramethyl-decahydronaphthalen-1-yl]methoxy}benzene-1,3-diol] |  |  |  | + (0 < x < 50) | +++ (>50% inhibition) |
| COc1cc(OC)cc(C(O)[C@@H]2[C@@]3(C)CCCC(C)(C)[C@@H]3CC[C@@]2(C)O)c1 (stereo partly drawn) [Compound No. 49, (1S,2R,4aS,8aS)-1-[(3,5-dimethoxyphenyl)(hydroxy)methyl]-2,5,5,8a-tetramethyl-decahydronaphthalen-2-ol] | +++ |  |  |  |  |
| C[C@H]1CC[C@H]2C(C)(C)CCC[C@]2(C)[C@H]1CC(O)c1cc(O)cc(O)c1 (stereo partly drawn) [Compound No. 58, 5-{2-[(1S,2S,4aS,8aR)-2,5,5,8a-tetramethyl-decahydronaphthalen-1-yl]-1-hydroxyethyl}benzene-1,3-diol] |  |  |  | +++ (x ≥65) | +++ (>50% inhibition) |
| C=C1[C@H](C(=O)c2cc(OC)cc(OC)c2)[C@@]2(C)CCCC(C)(C)[C@@H]2C[C@H]1O [Compound No. 141, (2R,4R,4aS,8aS)-4-[(3,5-dimethoxyphenyl)carbonyl]-4a,8,8-trimethyl-3-methylidene-decahydronaphthalen-2-ol] | + |  |  |  |  |
| CC(=O)N[C@@H]1C[C@H]2C(C)(C)CCC[C@]2(C)[C@@H](C(=O)c2cc(O)cc(O)c2)[C@@H]1C [Compound No. 57, N-[(2R,3S,4S,4aS,8aS)-4-[(3,5-dihydroxyphenyl)carbonyl]-3,4a,8,8-tetramethyl-decahydronaphthalen-2-yl]acetamide] |  |  | − | +++ (x ≥65) | +++ (>50% inhibition) |
| C[C@@H]1[C@H](NC(=N)N)C[C@H]2C(C)(C)CCC[C@]2(C)[C@H]1C(=O)c1cc(O)cc(O)c1 [Compound No. 178, 1-[(2R,3S,4S,4aS,8aS)-4-[(3,5-dihydroxyphenyl)carbonyl]-3,4a,8,8-tetramethyl-decahydronaphthalen-2-yl]guanidine] | +++ |  |  |  |  |
| Cc1cc(O)cc(C(=O)[C@H]2C(C)C(N)C[C@H]3C(C)(C)CCC[C@]23C)c1.Cl (stereo partly drawn) [Compound No. 22, 3-{[(1S,4aS,8aS)-3-amino-2,5,5,8a-tetramethyl-decahydronaphthalen-1-yl]carbonyl}-5-methylphenol hydrochloride] |  | + | − | + (0 < x < 50) |  |
| Cc1cc(O)cc(C(=O)[C@H]2[C@H](C)C(C(=O)O)C[C@H]3C(C)(C)CCC[C@]23C)c1 (stereo partly drawn) [Compound No. 68, (3S,4S,4aS,8aS)-4-[(3-hydroxy-5-methylphenyl)carbonyl]-3,4a,8,8-tetramethyl-decahydronaphthalene-2-carboxylic acid] | +++ | − | − |  |  |

— patent publication US10272081B2, “SHIP1 modulators and methods related thereto” (Aquinox Pharmaceuticals (Canada) Inc., priority 2013, dated 2019)
